Molecular target: T1, Bcl-2 protein (Recombinant Human Bcl-2 Protein) (Homo sapiens, UniProt P10415)
T1 construct: purchased Novus Biologicals NBP2-34889
Experiment: AS-MS evaluation of binding of the Example 4 mixture library (1200 compounds/well) to Bcl-2, ASMS ratio (%)
In short: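 Recombinant human Bcl-2 at 20 μM final was exposed to a 1200-member compound pool (20 nM per compound) in pH 7.4 Tris-HCl buffer containing NaCl, Tween-20 and DTT. After 1 h at 23 °C, protein–ligand complexes passed SEC spin columns; LC/MS signals were compared with protein-free standard and blank samples to give ASMS ratio.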

[1] = AS-MS, Example 4 mixture library, Bcl-2, replicate n = 1
[2] = AS-MS, Example 4 mixture library, Bcl-2, replicate n = 2
[3] = AS-MS, mixture of 1200 compounds/well, Bcl-2 protein, replicate n = 1
[4] = AS-MS, mixture of 1200 compounds/well, Bcl-2 protein, replicate n = 2
[5] = replicate n = 1, mixture library, value belongs to the MS peak assigned to the compound
[6] = replicate n = 2, mixture library, value belongs to the MS peak assigned to the compound

T1 sequence (P10415 whole entry): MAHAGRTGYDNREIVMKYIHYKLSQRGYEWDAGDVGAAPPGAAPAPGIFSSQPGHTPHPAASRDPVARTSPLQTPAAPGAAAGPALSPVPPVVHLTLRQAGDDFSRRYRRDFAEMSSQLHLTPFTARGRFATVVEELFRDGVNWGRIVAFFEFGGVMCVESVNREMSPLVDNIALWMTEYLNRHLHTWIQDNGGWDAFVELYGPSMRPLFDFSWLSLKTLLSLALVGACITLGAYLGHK

ASMS ratio (%) n = 1 [1] [%] | ASMS ratio (%) n = 2 [2] [%] | Compound | other results
1.9 | −24.6 | CCOc1cccc(-c2cc(CN3CCN(c4ccc(C(=O)NS(=O)(=O)C(C)(C)C)nn4)CC3)cc(C(F)(F)F)c2)c1 [Compound B2L087-01, N-tert-Butylsulfonyl-6-[4-[[3-(3-ethoxyphenyl)-5-(trifluoromethyl)phenyl]methyl]piperazin-1-yl]pyridazine-3-carboxamide] | 
2.6 | −1.2 | CCOc1cncc(-c2cc(CN3CCN(c4ccc(C(=O)NS(=O)(=O)C(C)(C)C)nn4)CC3)cc(OCC)c2)c1 [Compound B2L082-01] | 
0.0 | 0.0 | CCOc1cccc(-c2cc(CN3CCN(c4ccc(C(=O)NS(=O)(=O)C(C)(C)C)nn4)CC3)cc(OC(C)C)c2)c1 [Compound B2L083-01] | 
 |  | CCCNC(=O)c1ccc(N2CCN(Cc3cc(OCC)cc(-c4cncc(OCC)c4)c3)CC2)nn1 [Compound B1M012-01, 6-[4-[[3-Ethoxy-5-(5-ethoxypyridin-3-yl)phenyl]methyl]piperazin-1-yl]-N-propylpyridazine-3-carboxamide] | ASMS ratio (%) n = 1 [3]: −3.5%; ASMS ratio (%) n = 2 [4]: −2.3%
0.0 | 0.0 | CCOc1cccc(-c2cc(CN3CCN(c4ccc(C(=O)NS(=O)(=O)C(C)(C)C)nn4)CC3)cc(OCC)c2)c1 [Compound B2L081-01, N-tert-Butylsulfonyl-6-[4-[3-ethoxy-5-(3-ethoxyphenyl)phenyl]methyl]piperazin-1-yllpyridazine-3-carboxamide] | 
0.0 | 0.0 | CCOc1cncc(-c2cc(CN3CCN(c4ccc(C(=O)NS(=O)(=O)CCC(F)(F)F)nn4)CC3)cc(OC(F)(F)F)c2)c1 [Compound B2N090-01, 6-[4-[[3-(5-Ethoxypyridin-3-yl)-5-(trifluoromethoxy)phenyl]methyl]piperazin-1-yl]-N-(3,3,3-trifluoropropylsulfonyl)pyridazine-3-carboxamide] | 
 |  | CCOc1cncc(C#Cc2cc(C(=O)N3CCN(c4ccc(C(=O)NS(C)(=O)=O)cc4)CC3)cc(C(F)(F)F)c2)c1 [Compound B2I042-01, 4-[4-[3-[2-(5-Ethoxypyridin-3-yl)ethynyl]-5-(trifluoromethyl)benzoyl]piperazin-1-yl]-N-methylsulfonylbenzamide] | ASMS ratio (%) n = 1 [5]: 0.0%; ASMS ratio (%) n = 2 [6]: 0.0%
6.4 | 0.0 | CCOc1cncc(C#Cc2cncc(C(=O)N3CCN(c4ccc(C(=O)NS(=O)(=O)c5ccc(NCCSc6ccccc6)c(C(F)(F)F)c5)cc4)CC3)c2)c1 [Compound B2R032-01, 4-[4-[5-[2-(5-Ethoxypyridin-3-yl)ethynyl]pyridine-3-carbonyl]piperazin-1-yl]-N-[4-(2-phenylsulfanylethylamino)-3-(trifluoromethyl)phenyl]sulfonylbenzamide] | 
0.0 | 0.0 | CCOc1cncc(-c2ccc(CN3CCN(c4ccc(C(=O)NS(=O)(=O)c5ccc(NCCSc6ccccc6)c(C(F)(F)F)c5)cc4)CC3)c(CC)c2)c1 [Compound B2R050-01] | 
0.0 | 0.0 | CCOc1cncc(-c2ccc(C(C)N3CCN(c4ccc(C(=O)NS(=O)(=O)CCC(F)(F)F)cc4)CC3)c(F)c2)c1 (stereo not drawn) [Compound B2N100-01, 4-[4-[1-[4-(5-Ethoxypyridin-3-yl)-2-fluorophenyl]ethyl]piperazin-1-yl]-N-(3,3,3-trifluoropropylsulfonyl)benzamide] | 
0.0 | 19.5 | CCOc1cccc(C#Cc2cncc(C(=O)N3CCN(c4ccc(C(=O)NS(=O)(=O)c5ccc(NCCSc6ccccc6)c(C(F)(F)F)c5)nn4)CC3)c2)c1 [Compound B2R009-01, 6-[4-[5-[2-(3-Ethoxyphenyl)ethynyl]pyridine-3-carbonyl]piperazin-1-yl]-N-[4-(2-phenylsulfanylethylamino)-3-(trifluoromethyl)phenyl]sulfonylpyridazine-3-carboxamide] | 
 |  | CCOc1cncc(-c2cc(CN3CCN(c4ccc(C(=O)NS(=O)(=O)C(C)(C)C)cc4)CC3)cc(OCC)c2)c1 [Compound B2L056-01] | ASMS ratio (%) n = 1 [5]: 0.0%; ASMS ratio (%) n = 2 [6]: 0.0%
0.0 | 0.0 | CCOc1cccc(-c2ccc(C(=O)N3CCN(c4ccc(C(=O)NS(=O)(=O)CCC(F)(F)F)nn4)CC3)cc2C)c1 [Compound B2N003-01, 6-[4-[4-(3-Ethoxyphenyl)-3-methylbenzoyl]piperazin-1-yl]-N-(3,3,3-trifluoropropylsulfonyl)pyridazine-3-carboxamide] | 
 |  | CCOc1cncc(-c2ccc(CN3CCN(c4ccc(C(=O)NS(=O)(=O)C(C)(C)C)cc4)CC3)c(OC)c2)c1 [Compound B2L054-01] | ASMS ratio (%) n = 1 [5]: 0.0%; ASMS ratio (%) n = 2 [6]: 0.0%
9.1 | −6.0 | CCOc1cccc(-c2cc(CN3CCN(c4ccc(C(=O)NS(=O)(=O)c5ccc(NCCSc6ccccc6)c(C(F)(F)F)c5)cc4)CC3)cc(C(F)(F)F)c2)c1 [Compound B2R061-01, 4-[4-[[3-(3-Ethoxyphenyl)-5-(trifluoromethyl)phenyl]methyl]piperazin-1-yl]-N-[4-(2-phenylsulfanylethylamino)-3-(trifluoromethyl)phenyl]sulfonylbenzamide] | 
0.0 | 0.0 | CCOc1cccc(-c2ccc(C(=O)N3CCN(c4ccc(C(=O)NS(=O)(=O)CCC(F)(F)F)nn4)CC3)c3ccccc23)c1 [Compound B2N013-01, 6-[4-[4-(3-Ethoxyphenyl)naphthalene-1-carbonyl]piperazin-1-yl]-N-(3,3,3-trifluoropropylsulfonyl)pyridazine-3-carboxamide] | 
−3.5 | 1.8 | CCOc1cccc(-c2ccc(CN3CCN(c4ccc(C(=O)NS(=O)(=O)c5ccc(NCCSc6ccccc6)c(C(F)(F)F)c5)nn4)CC3)c3ccccc23)c1 [Compound B2R091-01, 6-[4-[[4-(3-Ethoxyphenyl)naphthalen-1-yl]methyl]piperazin-1-yl]-N-[4-(2-phenylsulfanylethylamino)-3-(trifluoromethyl)phenyl]sulfonylpyridazine-3-carboxamide] | 
 |  | CCCNC(=O)c1ccc(N2CCN(Cc3ccc(-c4cccc(OCC)c4)c(C)c3)CC2)nn1 [Compound B1M073-01] | ASMS ratio (%) n = 1 [3]: 0.4%; ASMS ratio (%) n = 2 [4]: −0.5%
 |  | CCOc1cncc(-c2ccc(CN3CCN(c4ccc(C(=O)NS(C)(=O)=O)nn4)CC3)c(CC)c2)c1 [Compound B2I076-01, 6-[4-[[4-(5-Ethoxypyridin-3-yl)-2-ethylphenyl]methyl]piperazin-1-yl]-N-methylsulfonylpyridazine-3-carboxamide] | ASMS ratio (%) n = 1 [5]: 0.2%; ASMS ratio (%) n = 2 [6]: −3.2%
0.0 | −1.2 | CCOc1cncc(-c2csc(C(=O)N3CCN(c4ccc(C(=O)NS(=O)(=O)c5ccc(NCCSc6ccccc6)c(C(F)(F)F)c5)cc4)CC3)c2)c1 [Compound B2R024-01, 4-[4-[4-(5-Ethoxypyridin-3-yl)thiophene-2-carbonyl]piperazin-1-yl]-N-[4-(2-phenylsulfanylethylamino)-3-(trifluoromethyl)phenyl]sulfonylbenzamide] | 
 |  | CCCNC(=O)c1ccc(N2CCN(Cc3cc(-c4cncc(OCC)c4)cs3)CC2)cc1 [Compound B1M068-01] | ASMS ratio (%) n = 1 [3]: 1.1%; ASMS ratio (%) n = 2 [4]: 0.0%

Reference: patent US20250154686A1, “COMPOUND LIBRARY” (CHUGAI SEIYAKU KABUSHIKI KAISHA, priority 2021, published 2025)
